# Measurements published in the METLIN SMRT retention time set (Domingo-Almenara et al. 2019).
# Test: gradient 5% acetonitrile 3 min, to 50% in 2 min, to 85% in 15 min, held 3 min, 100 µL/min
# Conditions: column: Zorbax Extend-C18 2.1 x 50 mm; eluents: water / acetonitrile, 0.1% formic acid
# How it was run: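 Values are retention times taken from adduct peaks that software picked and an analyst inspected. The pure standards were run as mixtures of ~100 molecules on HPLC linked to a quadrupole time-of-flight mass spectrometer, in positive and negative ionization mode. A Zorbax Extend-C18 column (2.1 × 50 mm, 1.8 μm) was used at 100 μL/min with water and acetonitrile, each including 0.1% formic acid.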
row,Compound,RP-LC retention time
1,O=C(C1CC(=O)N(c2ccc3c(c2)CCN3C(=O)C2CC2)C1)N1CCCCCC1 (centres undefined),750 s
2,Cc1c(C(=O)NC2CCCCCC2)sc2ncn(CC(=O)N3CC(C)CC(C)C3)c(=O)c12 (centres undefined),1070 s
3,Cc1ccc(-c2nc(CN3CCCC(C(=O)NC4CCCCNC4=O)C3)no2)cc1 (centres undefined),638 s
4,CO[C@H]1C(=O)N(C2CCN(S(=O)(=O)c3cccnc3)CC2)[C@H]1c1ccncc1,579 s
5,CC(C)n1cc(CN2CC(F)(F)C[C@H]2COc2cccnc2)c2ccccc21,698 s
6,CC(C)CCNC(=O)N1CCC2(CC1)C(=O)N(C)c1ccccc12,813 s
7,Cc1ccc(-n2ncc3c(=O)n(Cc4nc(-c5ccc(OC(C)C)cc5)no4)cnc32)cc1,1200 s
8,CCN1C(=O)c2cc(C(=O)NCCCc3ccccc3)nn2CC1(C)C(=O)NC1CCCC1 (centres undefined),845 s
9,COc1cccc(S(=O)(=O)N2CCC3(CC2)c2nccn2CCN3C)c1,607 s
10,CCOc1ccc(N2CCCCn3c2nc2c3c(=O)n(CCC(C)C)c(=O)n2C)cc1,1150 s
11,CCOC(=O)C1CCN(C(=O)Cn2nc(C)c3sc(-c4ccccc4)nc3c2=O)CC1,842 s
12,CCOc1ccc(OCC)c(NC(=O)C2=C(C)C(=O)OC23CCCCCC3)c1,1250 s
13,Cc1noc([C@@H]2CN(Cc3ccc(F)c(Cl)c3)C[C@H]2CO)n1,605 s
14,Cc1cc(=O)n(CC(=O)Nc2cc(F)cc(F)c2)c(N2CCOCC2)n1,724 s
15,Cn1nccc1C(=O)NC1CCCN(c2cc(N3CCCC3)ncn2)C1 (centres undefined),590 s
16,O=C(c1cccn1-c1nnc(N2CCOCC2)s1)N1CCCCCC1,747 s
17,CCc1ccccc1-n1c(-c2ccc(Cl)cc2)cn2c3c(=O)n(C)c(=O)n(C)c3nc12,1110 s
18,Cc1cc(C)cc(-n2ncc3c(N4CCN(CCO)CC4)ncnc32)c1,649 s

row,Compound,RP-LC retention time
1,O=C(c1ccc(-n2cnnn2)cc1)N1CCN(c2ccccn2)CC1,567 s
2,Cc1ccc(S(=O)(=O)N2CCCC(Cn3c(C)nc4cccnc43)C2)c(C)c1 (centres undefined),747 s
3,Cc1cccc(N2CC(C(=O)N(C)C)CC2=O)c1 (centres undefined),660 s
4,O=C(O)c1cc(-c2cccs2)n(C2CCS(=O)(=O)C2)n1 (centres undefined),630 s
5,O=C(NCCCN1CCN(C2CCCCC2)CC1)C1CCCN(C(=O)c2cccc(Cl)c2)C1 (centres undefined),584 s
6,CCN(CC)CCNC(=O)c1c(-c2ccccc2)c(-c2ccccc2)nn(CC)c1=O,666 s
7,Cc1cc(-n2nnc(C(=O)N3CCC(N4CCCCC4)CC3)c2-c2ccncc2)ccc1F,602 s
8,CC1C(=O)NCCN1C(=O)Cc1ccc2c(c1)OCO2 (centres undefined),600 s
9,COc1ccccc1NC(=O)N1CCCC1c1nncn1C1CCCC1 (centres undefined),697 s
10,CCc1cc(N2CCN(C(=O)COc3ccc(Cl)cc3)CC2)nc2nncn12,651 s
11,CC(=O)N1CCCSc2ccc(S(=O)(=O)N(C)c3ccc(C)c(C)c3)cc21,1030 s
12,Cc1ccc(NC(=O)N2CCC(CN3CCCC(C)C3)CC2)cc1 (centres undefined),613 s
13,COc1ccc(CN2CCNCC2)c(OC)c1OC,578 s
14,CCCCN1CC(c2nc3ccccc3n2CCOc2ccccc2OC)CC1=O (centres undefined),750 s
15,CCOC(=O)c1noc2ncnc(NCCCN3CCN(c4cc(C)ccc4C)CC3)c12,738 s
16,CC(=O)OC[C@@]1(O)C[C@@]23CC[C@@H]4c5ccoc5C=C[C@@]4(C)[C@@H]2CC[C@@H]1C3,715 s
17,CCc1noc(-c2cccnc2N2CCCN(Cc3cccc(C)c3)CC2)n1,690 s
18,Cn1nc(CNC(=O)C2(C)CCCCC2)c2c1CCN(S(C)(=O)=O)C2,702 s

# Next, values leading:
row,RP-LC retention time,Compound
1,653 s,Cc1nc(C)c(-c2nnc(NC(=O)c3cc(=O)c4ccccc4o3)o2)s1
2,654 s,COCCN1C(=O)CCc2cc(NC(=O)c3ccco3)ccc21
3,672 s,CC(C)c1ccc(C(=O)Nc2nc3ccccc3[nH]2)cc1
4,717 s,Cc1ccc(CNC(=O)C2(C)CCN(C(=O)Nc3cccc(Cl)c3C)CC2)cc1
5,665 s,Cn1nccc1C(=O)N1CCCCC1c1nncn1Cc1ccccc1 (centres undefined)
6,767 s,COCCNC(=O)C1Cc2cc(C(F)(F)F)ccc2N2CCN(C(=O)c3ccco3)CC12 (centres undefined)
7,997 s,COc1cccc(NC(=O)c2cn(CC3CCCO3)cc3c(=O)n(-c4ccccc4)nc2-3)c1 (centres undefined)
8,1080 s,CC(C)CC(=O)Nc1ccc(S(=O)(=O)N2CCCC2c2nc(-c3ccccc3)no2)cc1 (centres undefined)
9,1000 s,CCOc1ccc(NC(=O)Nc2nccn(-c3cccc(Cl)c3)c2=O)cc1
10,1110 s,O=S(=O)(c1cccc(F)c1)N1CCC(c2noc(-c3ccc(F)cc3)n2)CC1
11,762 s,COc1ccc(-c2cc(=O)n(CC(=O)Nc3nc4c(s3)CCCC4)cn2)cc1
12,654 s,O=C(Cc1c(Sc2ccccc2)[nH]c2ccccc12)NCCN1CCOCC1
13,864 s,O=C(Nc1cc(-c2ccccn2)no1)c1ccc(Cl)cc1
14,1220 s,O=C(NCCC1=CCCCC1)C1CCCN(c2ncc(-c3cccc(F)c3)cn2)C1 (centres undefined)
15,850 s,O=C(NCc1ccccc1)C1c2ccccc2CC(=O)N1Cc1ccccc1 (centres undefined)
16,740 s,CCn1cc(CCNC(=O)c2ccccc2C(F)(F)F)c2cccnc21
17,648 s,Cc1cc(NC(=O)CCCS(=O)(=O)c2ccc(Cl)cc2)n(C)n1
18,1360 s,CCOc1ccccc1-c1csc(NC(=O)Cc2csc(COc3cc(C)ccc3C)n2)n1
19,664 s,Cn1c(CN2CCN(C(=O)c3ccco3)CC2)nc2cc(NC(=O)C3CCCCC3)ccc21
20,1130 s,CCc1nc2cc(-c3noc(-c4nn(C)c5ccccc45)n3)ccc2o1
21,926 s,CC(C)NC(=O)Cn1c2ccccc2n2c(=O)cc(-c3cccc(Cl)c3)nc12
22,1130 s,CCOc1ccc(NC(=O)c2cn(-c3cc(N4CCCC(C)C4)ncn3)cn2)cc1 (centres undefined)
23,706 s,O=C(NCc1ccc(F)cc1)Nc1nnc(-c2ccco2)o1
24,708 s,COC(=O)c1ncn2c1C(=O)N(c1cccc(C)c1C)C(C)(C(=O)NCc1ccccc1)C2 (centres undefined)
25,813 s,COC(=O)c1ccc(-c2nc3cnccn3c2Nc2ccc3c(c2)OCCO3)cc1
26,1170 s,O=c1c2scc(-c3cccc(F)c3)c2ncn1Cc1ccc(Br)cc1
27,842 s,Clc1ccc2nc3ccccc3cc2c1

row,RP-LC retention time,Compound
1,1040 s,Cc1cc(NC(=O)Cn2c(=O)oc3ccccc32)n(-c2nc3c(F)cccc3s2)n1
2,649 s,COc1ccc(NC(=O)Nc2c(-c3ccc(F)cc3)nc3ccccn23)cc1
3,1020 s,Cc1nc(-c2ccc(S(=O)(=O)N3CCc4ccccc4C3)cc2)co1
4,902 s,COc1ccc(Cl)cc1C(=O)Nc1cc(-c2cccnc2)no1
5,1460 s,Cc1ccc(Cn2cccc2-c2nc(-c3ccc(F)cc3)no2)cc1
6,1080 s,O=C(c1sc(N2CCCCC2)nc1-c1ccccc1)c1c[nH]c2ccccc12
7,903 s,O=C(O)/C=C\C(=O)Nc1ccc(-c2ccccc2)cc1
8,645 s,O=C(c1nc(-c2cccc(F)c2)n2c1CCCCC2)N1CCN(c2ccccn2)CC1
9,611 s,Cc1ccc(CNC(=O)N2CCN(Cc3c(C)noc3C)CC2)cc1
10,876 s,CCOc1ccccc1CNC(=O)c1ccc2c(c1)NC(=O)C1CCCCN21 (centres undefined)
11,584 s,CC(=O)N1CCc2cc(-c3ccc(C(=O)NCc4ccccn4)cc3)ccc21
12,810 s,O=C(NCc1ccc(F)cc1)c1ccc(-n2nc(N3CCCC3)ccc2=O)cc1
13,631 s,O=C(N1CCC(c2nnc(-c3ccc(F)cc3)o2)CC1)C1(c2ccccc2)CCOCC1
14,788 s,CS(=O)(=O)Nc1ccc(-c2noc(CNC(=O)Cc3ccc(Cl)cc3)n2)cc1
15,964 s,COc1ccc(-c2nnc(-c3cc(S(=O)(=O)NCc4ccco4)ccc3Cl)o2)cc1
16,554 s,COc1cccc(NC(=O)N2CCc3nc[nH]c3C2)c1
17,964 s,O=C1CC(c2noc(-c3ccccc3Cl)n2)CN1c1ccc(F)cc1 (centres undefined)
18,572 s,CN(C)CC(=O)N1CC(c2nc(-c3ccc(F)cc3)no2)C2(CCOCC2)C1 (centres undefined)
19,927 s,COc1cccc(NC(=O)Nc2nccn(-c3ccc(F)c(F)c3)c2=O)c1
20,947 s,CCC1Oc2ccc(S(=O)(=O)N3CCC(C(=O)Nc4cccc(Cl)c4C)CC3)cc2NC1=O (centres undefined)
21,1130 s,COc1ccc(C2Cn3nnc(-c4nc(-c5ccc(F)cc5)no4)c3CO2)cc1 (centres undefined)
22,1230 s,CC(C)c1cc(C(=O)Nc2cccc(Cl)c2)nc2ccnn12
23,903 s,O=C(CN1C(=O)CCc2cc(Br)ccc21)Nc1ccc(F)cc1
24,757 s,CCC(=O)N1CCc2cc(C(=O)NCc3ccc(C)o3)ccc21
25,1120 s,COc1ccc(-c2noc(-c3nnn4c3COC(c3ccc(F)cc3)C4)n2)cc1 (centres undefined)
26,839 s,COc1ccc(N2C(=O)CCC(C(=O)NC3CCCCCC3)C2c2ccc(F)cc2)cc1 (centres undefined)
